# Data published in article PMC3885398, “Evaluation of the Antitumor Effects of BPR1J-340, a Potent and Selective FLT3 Inhibitor, Alone or in Combination with an HDAC Inhibitor, Vorinostat, in AML Cancer” (PLoS ONE, 2014).
# Where “and” joins values, the source holds several entries; their conditions need not be identical. Identical values can stand only once.
# Tests used:
# [1] = Pharmacokinetic analysis in rats; assay type: in vivo, Sprague-Dawley rats
# Protocol: The uses of animals were approved by The Institutional Care and Use Committee of the National Health Research Institutes. Briefly, male Sprague-Dawley rats weighing 300–400 g each were obtained from BioLASCO, Taiwan Co., Ltd., Ilan, Taiwan. One day prior dosing, rats were surgically prepared with a jugular-vein cannula and fasted overnight (∼18–20 hr). Water was available ad libitum. Food was provided at 4 hours after dosing. Single 1.5 mg/kg intravenous dose of BPR1J-340, as a PEG400/water (80/20, v/v) solution, was separately administered to groups of 3 rats each via the jugular-vein cannula. At 0 (prior to dosing), 2, 5, 15 and 30 min. and at 1, 2, 4, 6, 8 and 24 hr after dosing, a blood sample was collected. Plasma was separated from the blood by centrifugation (14,000 g for 15 min at 4°C in a Beckman Model AllegraTM 6R centrifuge) and stored in a freezer (−20°C) until analysis. All plasma samples were analyzed by LC-MS/MS. Plasma concentration data were analyzed with non-compartmental method for pharmacokinetic determination.
# NTRK1 (TRKA) = NTRK1 (TRKA) (Homo sapiens, UniProt P04629); assay: Invitrogen SelectScreen kinase profiling / IC50; assay type: biochemical
# NTRK1 (TRKA), sequence (P04629 33-796): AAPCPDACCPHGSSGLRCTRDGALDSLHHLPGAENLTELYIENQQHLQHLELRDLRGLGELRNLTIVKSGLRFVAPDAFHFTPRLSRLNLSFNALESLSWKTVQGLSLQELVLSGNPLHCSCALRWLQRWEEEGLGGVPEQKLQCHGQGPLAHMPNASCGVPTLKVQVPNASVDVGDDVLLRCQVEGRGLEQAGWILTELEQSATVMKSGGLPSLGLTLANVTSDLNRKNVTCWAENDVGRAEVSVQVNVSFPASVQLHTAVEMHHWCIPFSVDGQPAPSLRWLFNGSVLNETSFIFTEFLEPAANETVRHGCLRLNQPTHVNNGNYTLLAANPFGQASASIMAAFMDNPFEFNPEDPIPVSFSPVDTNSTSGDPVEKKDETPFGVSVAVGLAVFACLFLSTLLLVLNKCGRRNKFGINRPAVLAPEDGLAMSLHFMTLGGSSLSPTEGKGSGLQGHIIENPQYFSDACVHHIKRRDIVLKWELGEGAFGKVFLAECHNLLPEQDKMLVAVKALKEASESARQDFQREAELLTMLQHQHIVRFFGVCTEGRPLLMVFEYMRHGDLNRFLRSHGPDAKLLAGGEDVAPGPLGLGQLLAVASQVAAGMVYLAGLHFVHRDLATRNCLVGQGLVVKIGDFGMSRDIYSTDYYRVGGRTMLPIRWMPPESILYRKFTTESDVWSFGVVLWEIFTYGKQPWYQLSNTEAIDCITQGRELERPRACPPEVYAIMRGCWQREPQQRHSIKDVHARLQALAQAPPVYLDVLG
# Protocol: (§1) The FLT3 and VEGFR1/2 Kinase-Glo kinase assays were performed as reported by our earlier study. The VEGFR3 activity analysis was conducted using the same protocol described in the VEGFR1/2 assay. The kinase inhibition profiling and inhibitory activity of FLT3-D835Y, CSF1R, and TRKA were determined by Invitrogen SelectScreen® kinase profiling service (Carlsbad, California, USA).
# (§2) BPR1J-340, a urea-substituted 3-phenyl-1H-5-pyrazolylamine-based compound, was designed through chemical modification of sulfonamide series of derivatives (BPR1J-097 series) by a structure-activity relationship (SAR) study (Fig. 1), [32]. For kinase inhibition specificity screening, BPR1J-340 was tested against 59 protein kinases covering the major oncogenic kinases of human protein kinome. […] In addition, BPR1J-340 inhibited TRKA, which is associated with the growth and metastasis of breast cancers, with an IC50 value of 8 nM. Given the high similarity of the ATP binding pockets of FLT3 and the Aurora kinases, the inhibitory activity toward Aurora A and Aurora B were measured. […] Taken together, BPRJ-340 is a selective kinase inhibitor with in vitro activity against FLT3, VEGFR2, VEGFR3 and TRKA receptor tyrosine kinases.
# CSF1R (FMS) = CSF1R (FMS) (Homo sapiens, UniProt P07333); assay: Invitrogen SelectScreen kinase profiling / IC50; assay type: biochemical
# CSF1R (FMS), sequence (P07333 20-972): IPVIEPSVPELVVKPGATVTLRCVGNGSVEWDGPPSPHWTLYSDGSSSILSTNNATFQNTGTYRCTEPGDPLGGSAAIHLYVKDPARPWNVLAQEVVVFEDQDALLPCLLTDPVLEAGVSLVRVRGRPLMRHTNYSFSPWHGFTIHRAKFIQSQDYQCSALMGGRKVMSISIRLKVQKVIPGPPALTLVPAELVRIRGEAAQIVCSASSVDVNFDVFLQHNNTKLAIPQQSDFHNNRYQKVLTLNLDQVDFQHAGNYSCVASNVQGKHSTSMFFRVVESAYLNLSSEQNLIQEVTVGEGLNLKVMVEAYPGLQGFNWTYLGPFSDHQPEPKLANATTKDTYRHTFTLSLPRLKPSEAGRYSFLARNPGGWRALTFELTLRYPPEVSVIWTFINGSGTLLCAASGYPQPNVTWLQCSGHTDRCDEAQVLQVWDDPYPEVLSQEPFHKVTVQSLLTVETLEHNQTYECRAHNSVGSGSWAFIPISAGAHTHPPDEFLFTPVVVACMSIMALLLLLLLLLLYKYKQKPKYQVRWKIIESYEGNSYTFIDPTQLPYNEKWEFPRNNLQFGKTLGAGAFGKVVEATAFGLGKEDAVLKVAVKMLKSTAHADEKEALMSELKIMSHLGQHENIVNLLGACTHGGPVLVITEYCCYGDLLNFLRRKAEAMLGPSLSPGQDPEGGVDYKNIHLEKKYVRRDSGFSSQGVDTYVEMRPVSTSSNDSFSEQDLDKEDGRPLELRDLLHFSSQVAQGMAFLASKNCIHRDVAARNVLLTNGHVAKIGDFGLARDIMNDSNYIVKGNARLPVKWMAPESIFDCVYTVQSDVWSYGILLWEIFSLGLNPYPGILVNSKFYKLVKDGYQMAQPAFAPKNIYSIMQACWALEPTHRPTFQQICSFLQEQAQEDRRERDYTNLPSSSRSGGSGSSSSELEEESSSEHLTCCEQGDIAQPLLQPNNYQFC
# Protocol: as §1, §2
# FLT3 D835Y = biological target: T1, FLT3 D835Y (Homo sapiens, UniProt P36888, D835Y); assay: Invitrogen SelectScreen kinase profiling / IC50; assay type: biochemical
# T1 sequence (P36888 27-993 D835Y): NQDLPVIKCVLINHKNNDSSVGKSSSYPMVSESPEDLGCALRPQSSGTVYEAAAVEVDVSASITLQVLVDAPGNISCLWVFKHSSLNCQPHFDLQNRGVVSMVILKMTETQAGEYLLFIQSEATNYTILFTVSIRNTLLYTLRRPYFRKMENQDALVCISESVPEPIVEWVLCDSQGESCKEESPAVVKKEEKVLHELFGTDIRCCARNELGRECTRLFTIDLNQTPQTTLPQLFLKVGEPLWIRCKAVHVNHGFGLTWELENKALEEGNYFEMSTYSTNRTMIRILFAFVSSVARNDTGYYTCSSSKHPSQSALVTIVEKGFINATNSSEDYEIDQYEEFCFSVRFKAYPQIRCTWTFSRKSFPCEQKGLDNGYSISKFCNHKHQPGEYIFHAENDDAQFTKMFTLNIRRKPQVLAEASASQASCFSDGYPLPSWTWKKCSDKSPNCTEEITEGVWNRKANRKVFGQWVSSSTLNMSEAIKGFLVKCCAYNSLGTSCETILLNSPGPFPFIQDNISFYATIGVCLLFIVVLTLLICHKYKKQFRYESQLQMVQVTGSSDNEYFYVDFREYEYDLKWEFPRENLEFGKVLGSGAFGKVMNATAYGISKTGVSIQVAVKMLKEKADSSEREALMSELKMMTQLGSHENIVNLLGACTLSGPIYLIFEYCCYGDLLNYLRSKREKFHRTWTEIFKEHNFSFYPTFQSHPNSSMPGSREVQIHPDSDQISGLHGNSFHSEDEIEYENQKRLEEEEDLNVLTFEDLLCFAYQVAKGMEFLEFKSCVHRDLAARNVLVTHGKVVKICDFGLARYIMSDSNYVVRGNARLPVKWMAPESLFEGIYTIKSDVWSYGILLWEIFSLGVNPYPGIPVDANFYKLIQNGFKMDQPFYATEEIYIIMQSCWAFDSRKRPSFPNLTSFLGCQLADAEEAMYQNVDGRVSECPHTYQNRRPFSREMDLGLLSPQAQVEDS
# Protocol: as §1, §2
# Aurora A kinase = Aurora A kinase (Homo sapiens, UniProt O14965); assay: Aurora A kinase inhibition; assay type: biochemical
# Aurora A kinase, sequence (O14965 whole entry): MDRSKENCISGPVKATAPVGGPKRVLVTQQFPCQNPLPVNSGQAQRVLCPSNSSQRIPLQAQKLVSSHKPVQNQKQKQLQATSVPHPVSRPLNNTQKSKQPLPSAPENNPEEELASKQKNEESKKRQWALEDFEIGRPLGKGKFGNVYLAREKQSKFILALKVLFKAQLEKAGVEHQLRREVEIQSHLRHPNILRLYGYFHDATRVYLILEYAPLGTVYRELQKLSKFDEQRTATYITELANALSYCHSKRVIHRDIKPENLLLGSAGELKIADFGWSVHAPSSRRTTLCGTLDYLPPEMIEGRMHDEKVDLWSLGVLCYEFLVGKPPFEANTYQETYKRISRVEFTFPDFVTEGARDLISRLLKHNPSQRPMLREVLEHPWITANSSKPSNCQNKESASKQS
# Protocol: as §2
smiles,measurement,setting,value
"CCc1cc(NC(=O)NCc2ccc(-c3cc(NC(=O)c4ccc(CN5CCN(C)CC5)cc4)[nH]n3)cc2)no1 [BPR1J-340, N1-(3-4-[([(5-ethyl-3-isoxazolyl)amino]carbonylamino)methyl]phenyl-1H-5-pyrazolyl)-4-[(4-methylpiperazino)methyl]benzamide]",maximum plasma concentration,"[1]; Rat IV 1.5 mg/kg, at 2 min after dosing, 1.5 mg/kg","7.9 µM and 4,296 ng/mL"
same,plasma concentration maintained for 6 hours,"[1]; Rat IV 1.5 mg/kg, for 6 hours",exceeded 80 ng/mL
same,T1/2,"[1]; Rat IV, dose 1.5 mg/kg, listed as BRP1J-340, 1.5 mg/kg",8.8 ± 0.6 h
same,maximum achievable plasma concentration above the IC50 for FLT3-ITD inhibition,"[1]; Rat, single 1.5 mg/kg",more than 272 fold
same,concentration at 24 h,"[1]; male, Sprague-Dawley, plasma, Rat IV 1.5 mg/kg, 24 hour after dosing, read-out: plasma concentration C24 hour",9.9 ng/mL and 18 nM
same,clearance,"[1]; male, Sprague-Dawley, plasma, Rat IV, dose 1.5 mg/kg",20.4 ± 5.2 mL/min/kg
same,AUC(0-t),"[1]; male, Sprague-Dawley, plasma, Rat IV, dose 1.5 mg/kg, read-out: AUC(0–24)",1130 ± 260 ng·h/mL
same,Vd,"[1]; male, Sprague-Dawley, plasma, Rat IV, dose 1.5 mg/kg, read-out: Vss",10.3 ± 2.5 L/kg
same,half-life,"[1]; male, Sprague-Dawley, rat, plasma, iv, 1.5 mg/kg, Rat IV",~8.8 h
same,inhibition at 0.1 µM,"NTRK1 (TRKA); NTRK1 (TRKA), 100 nM",89%
same,IC50,"NTRK1 (TRKA); TRKA, Invitrogen SelectScreen kinase assay",8 nM
same,inhibition at 0.1 µM,CSF1R (FMS); 100 nM,73%
same,IC50,CSF1R (FMS); Invitrogen SelectScreen kinase assay,78 nM
same,IC50,"FLT3 D835Y; FLT3-D835Y, Invitrogen SelectScreen kinase assay",19 nM
same,inhibition at 0.1 µM,"FLT3 D835Y; FLT3 D835Y, 100 nM",78%
same,IC50,Aurora A kinase,1040 nM
